Measured values reported in US20230017045A1, “PYRIDINE AND PYRIMIDINE CARBOXYLATE HERBICIDES AND METHODS OF USE THEREOF” (Dow AgroSciences LLC, priority 2017, published 2023).

Each compound was assayed on test plant species (assay: Post-emergent herbicidal activity test (greenhouse, foliar spray, visual growth reduction)). Conditions: post-emergence, 336 h, ECHCG: barnyardgrass (Echinochloa crus-galli), 140 g ai/ha, 14 days after application, read-out: Visual Growth Reduction (%) 14 Days After Application, ECHCG.
Assay type: in vivo
How it was run: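 Seedlings were raised 7-21 d in a greenhouse under a 15 h photoperiod until the first or second true leaf. Each compound, dissolved in acetone:DMSO 97:3 and diluted into a surfactant-containing spray mixture, was then applied at 187 L/ha. Plants were subirrigated, and growth reduction was scored visually at 14 d.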
Compound `Cc1c(C(F)(F)F)ccc(-c2ccc(Cl)c(C(=O)O)n2)c1F` [F293, 3-Chloro-6-(2-fluoro-3-methyl-4-(trifluoromethyl)phenyl)picolinic acid] has a pest or weed control at 140 g/ha of 0 to 29%. For `COC(=O)c1nc(-c2c(Cl)cccc2OC)c(F)cc1Cl` [F301, Methyl 3-chloro-6-(2-chloro-6-methoxyphenyl)-5-fluoropicolinate], the pest or weed control at 140 g/ha was 0 to 29%. `COC(=O)c1nc(-c2ccc3cc[nH]c3c2)c(F)cc1Cl` [F320, Methyl 3-chloro-5-fluoro-6-(1H-indol-6-yl)picolinate] gave a pest or weed control at 140 g/ha of 0 to 29%.

Same assay, conditions: post-emergence, 336 h, IPOHE: ivy-leaf morning glory (Ipomoea hederacea), 140 g ai/ha, 14 days after application, read-out: Visual Growth Reduction (%) 14 Days After Application, IPOHE
Compound `Cc1c(C(F)(F)F)ccc(-c2ccc(Cl)c(C(=O)O)n2)c1F` [F293, 3-Chloro-6-(2-fluoro-3-methyl-4-(trifluoromethyl)phenyl)picolinic acid] has a pest or weed control at 140 g/ha of 0 to 29%. `COC(=O)c1nc(-c2c(Cl)cccc2OC)c(F)cc1Cl` [F301, Methyl 3-chloro-6-(2-chloro-6-methoxyphenyl)-5-fluoropicolinate] was tested, and the pest or weed control at 140 g/ha was 0 to 29%. Work on `COC(=O)c1nc(-c2ccc3cc[nH]c3c2)c(F)cc1Cl` [F320, Methyl 3-chloro-5-fluoro-6-(1H-indol-6-yl)picolinate] yielded a pest or weed control at 140 g/ha of 60 to 74%.

Same assay, conditions: post-emergence, 336 h, KCHSC: kochia (Bassia scoparia), 140 g ai/ha, 14 days after application, read-out: Visual Growth Reduction (%) 14 Days After Application, KCHSC
`Cc1c(C(F)(F)F)ccc(-c2ccc(Cl)c(C(=O)O)n2)c1F` [F293, 3-Chloro-6-(2-fluoro-3-methyl-4-(trifluoromethyl)phenyl)picolinic acid] gave a pest or weed control at 140 g/ha of 0 to 29%. With `COC(=O)c1nc(-c2c(Cl)cccc2OC)c(F)cc1Cl` [F301, Methyl 3-chloro-6-(2-chloro-6-methoxyphenyl)-5-fluoropicolinate] the pest or weed control at 140 g/ha was 0 to 29%. `COC(=O)c1nc(-c2ccc3cc[nH]c3c2)c(F)cc1Cl` [F320, Methyl 3-chloro-5-fluoro-6-(1H-indol-6-yl)picolinate] gave a pest or weed control at 140 g/ha of 0 to 29%.

Same assay, conditions: post-emergence, 336 h, ORYSA: rice (Oryza sativa), 140 g ai/ha, 14 days after application, read-out: Visual Growth Reduction (%) 14 Days After Application, ORYSA
`Cc1c(C(F)(F)F)ccc(-c2ccc(Cl)c(C(=O)O)n2)c1F` [F293, 3-Chloro-6-(2-fluoro-3-methyl-4-(trifluoromethyl)phenyl)picolinic acid] was tested, and the pest or weed control at 140 g/ha was 0 to 29%. Compound `COC(=O)c1nc(-c2c(Cl)cccc2OC)c(F)cc1Cl` [F301, Methyl 3-chloro-6-(2-chloro-6-methoxyphenyl)-5-fluoropicolinate] has a pest or weed control at 140 g/ha of 0 to 29%. `COC(=O)c1nc(-c2ccc3cc[nH]c3c2)c(F)cc1Cl` [F320, Methyl 3-chloro-5-fluoro-6-(1H-indol-6-yl)picolinate] was tested, and the pest or weed control at 140 g/ha was 0 to 29%.

Same assay, conditions: post-emergence, 336 h, SETFA: giant foxtail (Setaria faberi), 140 g ai/ha, 14 days after application, read-out: Visual Growth Reduction (%) 14 Days After Application, SETFA
`Cc1c(C(F)(F)F)ccc(-c2ccc(Cl)c(C(=O)O)n2)c1F` [F293, 3-Chloro-6-(2-fluoro-3-methyl-4-(trifluoromethyl)phenyl)picolinic acid] showed a pest or weed control at 140 g/ha of 0 to 29%. `COC(=O)c1nc(-c2c(Cl)cccc2OC)c(F)cc1Cl` [F301, Methyl 3-chloro-6-(2-chloro-6-methoxyphenyl)-5-fluoropicolinate] was tested, and the pest or weed control at 140 g/ha was 0 to 29%. With `COC(=O)c1nc(-c2ccc3cc[nH]c3c2)c(F)cc1Cl` [F320, Methyl 3-chloro-5-fluoro-6-(1H-indol-6-yl)picolinate] the pest or weed control at 140 g/ha was 0 to 29%.

Same assay, conditions: post-emergence, 336 h, SORVU: grain sorghum (Sorghum vulgare), 140 g ai/ha, 14 days after application, read-out: Visual Growth Reduction (%) 14 Days After Application, SORVU
`Cc1c(C(F)(F)F)ccc(-c2ccc(Cl)c(C(=O)O)n2)c1F` [F293, 3-Chloro-6-(2-fluoro-3-methyl-4-(trifluoromethyl)phenyl)picolinic acid] showed a pest or weed control at 140 g/ha of 0 to 29%. With `COC(=O)c1nc(-c2c(Cl)cccc2OC)c(F)cc1Cl` [F301, Methyl 3-chloro-6-(2-chloro-6-methoxyphenyl)-5-fluoropicolinate] the pest or weed control at 140 g/ha was 0 to 29%. With `COC(=O)c1nc(-c2ccc3cc[nH]c3c2)c(F)cc1Cl` [F320, Methyl 3-chloro-5-fluoro-6-(1H-indol-6-yl)picolinate] the pest or weed control at 140 g/ha was 0 to 29%.

Same assay, conditions: post-emergence, 336 h, STEME: common chickweed (Stellaria media), 140 g ai/ha, 14 days after application, read-out: Visual Growth Reduction (%) 14 Days After Application, STEME
`Cc1c(C(F)(F)F)ccc(-c2ccc(Cl)c(C(=O)O)n2)c1F` [F293, 3-Chloro-6-(2-fluoro-3-methyl-4-(trifluoromethyl)phenyl)picolinic acid] was tested, and the pest or weed control at 140 g/ha was 0 to 29%. `COC(=O)c1nc(-c2c(Cl)cccc2OC)c(F)cc1Cl` [F301, Methyl 3-chloro-6-(2-chloro-6-methoxyphenyl)-5-fluoropicolinate] gave a pest or weed control at 140 g/ha of 0 to 29%. Work on `COC(=O)c1nc(-c2ccc3cc[nH]c3c2)c(F)cc1Cl` [F320, Methyl 3-chloro-5-fluoro-6-(1H-indol-6-yl)picolinate] yielded a pest or weed control at 140 g/ha of 0 to 29%.

Same assay, conditions: post-emergence, 336 h, TRZAS: wheat, spring (Triticum aestivum), 140 g ai/ha, 14 days after application, read-out: Visual Growth Reduction (%) 14 Days After Application, TRZAS
`Cc1c(C(F)(F)F)ccc(-c2ccc(Cl)c(C(=O)O)n2)c1F` [F293, 3-Chloro-6-(2-fluoro-3-methyl-4-(trifluoromethyl)phenyl)picolinic acid] was tested, and the pest or weed control at 140 g/ha was 0 to 29%. `COC(=O)c1nc(-c2c(Cl)cccc2OC)c(F)cc1Cl` [F301, Methyl 3-chloro-6-(2-chloro-6-methoxyphenyl)-5-fluoropicolinate] was tested, and the pest or weed control at 140 g/ha was 0 to 29%. Work on `COC(=O)c1nc(-c2ccc3cc[nH]c3c2)c(F)cc1Cl` [F320, Methyl 3-chloro-5-fluoro-6-(1H-indol-6-yl)picolinate] yielded a pest or weed control at 140 g/ha of 0 to 29%.

Same assay, conditions: post-emergence, 336 h, blackgrass (Alopecurus myosuroides), 14 Days After Application, 140 g ai/ha, read-out: Visual Growth Reduction (%) ALOMY
Compound `Cc1c(C(F)(F)F)ccc(-c2ccc(Cl)c(C(=O)O)n2)c1F` [F293, 3-Chloro-6-(2-fluoro-3-methyl-4-(trifluoromethyl)phenyl)picolinic acid] has a pest or weed control at 140 g/ha of 0 to 29%. Compound `COC(=O)c1nc(-c2c(Cl)cccc2OC)c(F)cc1Cl` [F301, Methyl 3-chloro-6-(2-chloro-6-methoxyphenyl)-5-fluoropicolinate] has a pest or weed control at 140 g/ha of 0 to 29%. `COC(=O)c1nc(-c2ccc3cc[nH]c3c2)c(F)cc1Cl` [F320, Methyl 3-chloro-5-fluoro-6-(1H-indol-6-yl)picolinate] was tested, and the pest or weed control at 140 g/ha was 0 to 29%.

Same assay, conditions: post-emergence, 336 h, canada thistle (Cirsium arvense), 14 Days After Application, 140 g ai/ha, read-out: Visual Growth Reduction (%) CIRAR
For `Cc1c(C(F)(F)F)ccc(-c2ccc(Cl)c(C(=O)O)n2)c1F` [F293, 3-Chloro-6-(2-fluoro-3-methyl-4-(trifluoromethyl)phenyl)picolinic acid], the pest or weed control at 140 g/ha was 30 to 44%. Compound `COC(=O)c1nc(-c2c(Cl)cccc2OC)c(F)cc1Cl` [F301, Methyl 3-chloro-6-(2-chloro-6-methoxyphenyl)-5-fluoropicolinate] has a pest or weed control at 140 g/ha of 0 to 29%. In the case of `COC(=O)c1nc(-c2ccc3cc[nH]c3c2)c(F)cc1Cl` [F320, Methyl 3-chloro-5-fluoro-6-(1H-indol-6-yl)picolinate], the pest or weed control at 140 g/ha was 30 to 44%.

Same assay, conditions: post-emergence, 336 h, crabgrass (Digitaria sanguinalis), 14 Days After Application, 140 g ai/ha, read-out: Visual Growth Reduction (%) DIGSA
Compound `Cc1c(C(F)(F)F)ccc(-c2ccc(Cl)c(C(=O)O)n2)c1F` [F293, 3-Chloro-6-(2-fluoro-3-methyl-4-(trifluoromethyl)phenyl)picolinic acid] has a pest or weed control at 140 g/ha of 0 to 29%. In the case of `COC(=O)c1nc(-c2c(Cl)cccc2OC)c(F)cc1Cl` [F301, Methyl 3-chloro-6-(2-chloro-6-methoxyphenyl)-5-fluoropicolinate], the pest or weed control at 140 g/ha was 0 to 29%. `COC(=O)c1nc(-c2ccc3cc[nH]c3c2)c(F)cc1Cl` [F320, Methyl 3-chloro-5-fluoro-6-(1H-indol-6-yl)picolinate] gave a pest or weed control at 140 g/ha of 0 to 29%.

Same assay, conditions: post-emergence, 336 h, lambsquarters (Chenopodium album), 14 Days After Application, 140 g ai/ha, read-out: Visual Growth Reduction (%) CHEAL
`Cc1c(C(F)(F)F)ccc(-c2ccc(Cl)c(C(=O)O)n2)c1F` [F293, 3-Chloro-6-(2-fluoro-3-methyl-4-(trifluoromethyl)phenyl)picolinic acid] gave a pest or weed control at 140 g/ha of 45 to 59%. With `COC(=O)c1nc(-c2c(Cl)cccc2OC)c(F)cc1Cl` [F301, Methyl 3-chloro-6-(2-chloro-6-methoxyphenyl)-5-fluoropicolinate] the pest or weed control at 140 g/ha was 0 to 29%. `COC(=O)c1nc(-c2ccc3cc[nH]c3c2)c(F)cc1Cl` [F320, Methyl 3-chloro-5-fluoro-6-(1H-indol-6-yl)picolinate] gave a pest or weed control at 140 g/ha of 60 to 74%.

Same assay, conditions: post-emergence, 336 h, redroot pigweed (Amaranthus retroflexus), 14 Days After Application, 140 g ai/ha, read-out: Visual Growth Reduction (%) AMARE
Compound `Cc1c(C(F)(F)F)ccc(-c2ccc(Cl)c(C(=O)O)n2)c1F` [F293, 3-Chloro-6-(2-fluoro-3-methyl-4-(trifluoromethyl)phenyl)picolinic acid] has a pest or weed control at 140 g/ha of 0 to 29%. In the case of `COC(=O)c1nc(-c2c(Cl)cccc2OC)c(F)cc1Cl` [F301, Methyl 3-chloro-6-(2-chloro-6-methoxyphenyl)-5-fluoropicolinate], the pest or weed control at 140 g/ha was 0 to 29%. `COC(=O)c1nc(-c2ccc3cc[nH]c3c2)c(F)cc1Cl` [F320, Methyl 3-chloro-5-fluoro-6-(1H-indol-6-yl)picolinate] showed a pest or weed control at 140 g/ha of 0 to 29%.

Same assay, conditions: post-emergence, 336 h, wild oat (Avena fatua), 14 Days After Application, 140 g ai/ha, read-out: Visual Growth Reduction (%) AVEFA
In the case of `Cc1c(C(F)(F)F)ccc(-c2ccc(Cl)c(C(=O)O)n2)c1F` [F293, 3-Chloro-6-(2-fluoro-3-methyl-4-(trifluoromethyl)phenyl)picolinic acid], the pest or weed control at 140 g/ha was 0 to 29%. Compound `COC(=O)c1nc(-c2c(Cl)cccc2OC)c(F)cc1Cl` [F301, Methyl 3-chloro-6-(2-chloro-6-methoxyphenyl)-5-fluoropicolinate] has a pest or weed control at 140 g/ha of 0 to 29%. `COC(=O)c1nc(-c2ccc3cc[nH]c3c2)c(F)cc1Cl` [F320, Methyl 3-chloro-5-fluoro-6-(1H-indol-6-yl)picolinate] gave a pest or weed control at 140 g/ha of 0 to 29%.

Same assay, conditions: post-emergence, 336 h, yellow nutsedge (Cyperus esculentus), 14 Days After Application, 140 g ai/ha, read-out: Visual Growth Reduction (%) CYPES
In the case of `Cc1c(C(F)(F)F)ccc(-c2ccc(Cl)c(C(=O)O)n2)c1F` [F293, 3-Chloro-6-(2-fluoro-3-methyl-4-(trifluoromethyl)phenyl)picolinic acid], the pest or weed control at 140 g/ha was 0 to 29%. With `COC(=O)c1nc(-c2c(Cl)cccc2OC)c(F)cc1Cl` [F301, Methyl 3-chloro-6-(2-chloro-6-methoxyphenyl)-5-fluoropicolinate] the pest or weed control at 140 g/ha was 0 to 29%. For `COC(=O)c1nc(-c2ccc3cc[nH]c3c2)c(F)cc1Cl` [F320, Methyl 3-chloro-5-fluoro-6-(1H-indol-6-yl)picolinate], the pest or weed control at 140 g/ha was 0 to 29%.
